Target: T1, human farnesol receptor protein hFXR (Homo sapiens, UniProt Q96RI1)
T1 construct: hexahistidine (His6)
T1 sequence (Q96RI1 1-486): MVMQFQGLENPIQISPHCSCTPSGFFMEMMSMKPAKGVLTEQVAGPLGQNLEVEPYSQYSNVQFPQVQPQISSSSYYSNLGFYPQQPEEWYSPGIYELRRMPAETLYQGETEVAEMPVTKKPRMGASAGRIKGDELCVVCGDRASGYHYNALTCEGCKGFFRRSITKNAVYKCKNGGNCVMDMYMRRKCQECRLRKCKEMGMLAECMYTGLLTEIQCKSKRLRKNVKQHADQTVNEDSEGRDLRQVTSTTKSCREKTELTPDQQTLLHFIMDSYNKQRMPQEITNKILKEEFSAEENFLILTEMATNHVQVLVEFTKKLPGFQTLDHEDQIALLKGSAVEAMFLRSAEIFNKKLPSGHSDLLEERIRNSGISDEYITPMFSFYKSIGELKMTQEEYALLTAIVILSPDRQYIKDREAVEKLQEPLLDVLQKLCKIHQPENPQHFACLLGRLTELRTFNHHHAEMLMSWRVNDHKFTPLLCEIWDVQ
Test: AlphaScreen assay of FXR agonist activity in vitro: effect on binding between human farnesol receptor protein and its coactivator (SRC1-2)
Format: biochemical
Settings: hFXR 100 nM, peptide bSRC1-2 50 nM, 2 hr incubation at room temperature
Description: FXR agonist activity in vitro for the chemicals prepared in the above examples is measured.
AlphaScreen-based assays are performed with a hexahistidine detection kit manufactured by Perkins-Elmer, for measuring the effect of chemical compounds on the binding between human farnesol receptor protein and its coactivator (SRC1-2), the method is shown as follows:
1) Preparing a mixture comprising human farnesol receptor protein hFXR (100 nM, 15 μL/well), peptide bSRC1-2 (50 nM, 15 μL/well), 10× AlphaScreen buffer solution (15 μL/well and DI water (60 μL/well), and then transferring 105 μL/well of the mixture to a 96-well plate; 2) Diluting the chemicals prepared in the above examples by twice gradient 12×, with 15 μL/well; 3) Adding donor beads and acceptor beads, 30 μL/well in total; (attention: the beads are light-sensitive) 4) Incubating in dark at room temperature for 2 hr; 5) Transferring 40 μL/well of the mixture to a 384-well plate with 3 replicates, and then centrifuging at 1000 rpm for 1 min, to make liquid mixed well underneath the wells. (attention: photopathic operation); 6) In a dark room, reading the plate (by Homogeneous luminescent immunoassay system) to obtain EC50 with a GraphPad Prism5 software.

EC50 [nM]	Structure (SMILES)
> 1000	O=C(O)c1cccc(C(=O)N2CCC3(CC2)CC(OCc2c(-c4c(Cl)cccc4Cl)noc2C2CC2)C3)c1 [Example 1]
100 to 1000	O=C(O)c1ccc2nc(N3CCC4(CC(OCc5c(-c6c(F)cccc6F)noc5C5CC5)C4)C3)sc2c1 (stereo not drawn) [Example 38]
< 100	O=C(O)c1ccc2nc(N3CCc4cc(OCc5c(-c6c(F)cccc6F)noc5C5CC5)ccc4C3)sc2c1 [Example 40, 2-(6-((5-cyclopropyl-3-(2,6-difluorophenyl)isoxazol-4-yl)methoxy)-3,4-dihydroisoquinolin-2(1H)-yl) benzo[d]thiazole-6-carboxylic Acid]
< 100	O=C(O)c1ccc2nc(N3CC4CCCC(C3)C4OCc3c(-c4c(Cl)cccc4Cl)noc3C3CC3)sc2c1 (stereo not drawn) [Example 28, 2-(9-((5-cyclopropyl-3-(2,6-dichlorophenyl)isoxazol-4-yl)methoxy)-3-azazbicyclo[3.3.1]nonan-3-yl) benzo[d]thiazole-6-carboxylic Acid]
100 to 1000	O=C(O)c1ccc2nc(N3CCC4(CC(OCc5c(-c6ccccc6C(F)(F)F)noc5C5CC5)C4)C3)oc2c1 (stereo not drawn) [Example 42, 2-(2-((5-cyclopropyl-3-(2-trifluoromethylphenyl)isoxazol-4-yl)methoxy)-6-azaspiro[3.4]octan-6-yl) benzo[d]oxazole-6-carboxylic Acid]
< 100	O=C(O)c1cc2cc(N3CCC4(CC(OCc5c(-c6c(Cl)cccc6Cl)noc5C5CC5)C4)C3)ccc2o1 (stereo not drawn) [Example 29]
< 100	O=C(O)c1ccc(N2CCC3(CC(OCc4c(-c5c(Cl)cccc5Cl)noc4C4CC4)C3)C2)nc1 (stereo not drawn) [Example 44, 6-(2-((5-cyclopropyl-3-(2,6-dichlorophenyl)isoxazol-4-yl)methoxy)-6-azaspiro[3.4]octan-6-yl) pyridine-3-carboxylic Acid]
< 100	O=C(O)c1ccc2nc(N3Cc4ccc(OCc5c(-c6c(Cl)cccc6Cl)noc5C5CC5)cc4C3)sc2c1 [Example 22, 2-(5-((5-cyclopropyl-3-(2,6-dichlorophenyl)isoxazol-4-yl)methoxy)isoindolin-2-yl) benzo[d]thiazole-6-carboxylic Acid]
< 100	O=C(O)c1cccc(C(=O)N2CCC3(CC(OCc4c(-c5c(Cl)cccc5Cl)noc4C4CC4)C3)C2)c1 (stereo not drawn) [Example 7, 3-(2-((5-cyclopropyl-3-(2,6-dichlorophenyl)isoxazol-4-yl)methoxy)-6-azaspiro[3.4]octan-6-carbonyl)benzoic Acid]
< 100	O=C(O)c1ccc2nc(N3CC4CCCCC(C3)C4OCc3c(-c4c(Cl)cccc4Cl)noc3C3CC3)sc2c1 (stereo not drawn) [Example 11, 2-(10-((5-cyclopropyl-3-(2,6-dichlorophenyl)isoxazol-4-yl)methoxy)-8-azabicyclo[4.3.1]decan-8-yl)benzo[d]thiazole-6-carboxylic Acid]
100 to 1000	O=C(O)c1cc2ccc(N3CCC4(CC(OCc5c(-c6c(Cl)cccc6Cl)noc5C5CC5)C4)C3)cc2s1 (stereo not drawn) [Example 30, 6-(2-((5-cyclopropyl-3-(2,6-dichlorophenyl)isoxazol-4-yl)methoxy)-6-azaspiro[3.4]octan-6-yl) benzothiophene-2-carboxylic Acid]
100 to 1000	O=C(O)c1ccc2nc(N3CCC(COCc4c(-c5c(Cl)cccc5Cl)noc4C4CC4)CC3)sc2c1 [Example 48]
100 to 1000	O=C(O)c1ccc2nc(N3CCC4(CC(OCc5c(-c6ccccc6C(F)(F)F)noc5C5CC5)C4)C3)sc2c1 (stereo not drawn) [Example 41, 2-(2-((5-cyclopropyl-3-(2-trifluoromethylphenyl)isoxazol-4-yl)methoxy)-6-azaspiro[3.4]octan-6-yl) benzo[d]thiazole-6-carboxylic Acid]
100 to 1000	O=C(O)c1cc(F)c2nc(N3CC4(CC(OCc5c(-c6c(Cl)cccc6Cl)noc5C5CC5)C4)C[C@H]3CF)sc2c1 (stereo partly drawn) [Example 19, (S)-2-(2-((5-cyclopropyl-3-(2,6-dichlorophenyl)isoxazol-4-yl)methoxy)-7-(fluromethyl)-6-azaspiro[3.4]octan-6-yl)-4-flurobenzo[d]thiazole-6-carboxylic Acid]
100 to 1000	O=C(O)c1ccc2nc(N3CC4CCC(OCc5c(-c6c(Cl)cccc6Cl)noc5C5CC5)CC4C3)sc2c1 (stereo not drawn) [Example 25, 2-(5-((5-cyclopropyl-3-(2,6-dichlorophenyl)isoxazol-4-yl)methoxy)hexahydro-1H-isoindol-2(3H)-yl) benzo[d]thiazole-6-carboxylic Acid]
100 to 1000	COc1cc(C(=O)O)cc2sc(N3CCC4(CC(OCc5c(-c6c(Cl)cccc6Cl)noc5C5CC5)C4)C3)nc12 (stereo not drawn) [Example 12, 2-(2-((5-cyclopropyl-3-(2,6-dichlorophenyl)isoxazol-4-yl)methoxy)-6-azaspiro[3.4]octan-6-yl)-4-methoxybenzo[d]thiazole-6-carboxylic Acid]
> 1000	O=C(O)c1cccc(C(=O)N2CC3(CC(OCc4c(-c5c(Cl)cccc5Cl)noc4C4CC4)C3)C2)c1 [Example 3, 3-(6((5-cyclopropyl-3(2,6-dichlorophenyl)isoxazol-4-yl)methoxy)-2-azaspiro[3.3]heptan-2-carbonyl)benzoic Acid]
< 100	O=C(O)c1cnc(N2CCC3(CC(OCc4c(-c5c(Cl)cccc5Cl)noc4C4CC4)C3)C2)cn1 (stereo not drawn) [Example 35, 5-(2-((5-cyclopropyl-3-(2,6-dichlorophenyl)isoxazol-4-yl)methoxy)-6-azaspiro[3.4]octan-6-yl)pyrazine-2-carboxylic Acid]
100 to 1000	O=C(O)c1cccc(N2CC3(CC(OCc4c(-c5c(Cl)cccc5Cl)noc4C4CC4)C3)C2)c1 [Example 9, 3-(6-((5-cyclopropyl-3-(2,6-dichlorophenyl)isoxazol-4-yl)methoxy)-2-azaspiro[3.3]heptan-2-yl)benzoic Acid]
100 to 1000	O=C(O)c1ccc(N2CCC3(CC(OCc4c(-c5c(Cl)cccc5Cl)noc4C4CC4)C3)C2)c(F)c1 (stereo not drawn) [Example 37, 4-(2-((5-cyclopropyl-3-(2,6-dichlorophenyl)isoxazol-4-yl)methoxy)-6-azaspiro[3.4]octan-6-yl)-3-fluorobenzoic Acid]
> 1000	O=C(O)c1cccc(C(=O)N2CC3CCC(C2)C3OCc2c(-c3c(Cl)cccc3Cl)noc2C2CC2)c1 (stereo not drawn) [Example 5, 3-(8((5-cyclopropyl-3-(2,6-dichlorophenyl)isoxazol-4-yl)methoxy)3-azabicyclo[3.2.1]octan-3-carbonyl)benzoic Acid]
< 100	O=C(O)c1ccc(N2CCC3(CC(OCc4c(-c5c(Cl)cccc5Cl)noc4C4CC4)C3)C2)nn1 (stereo not drawn) [Example 46, 6-(2-((5-cyclopropyl-3-(2,6-dichlorophenyl)isoxazol-4-yl)methoxy)-6-azaspiro[3.4]octan-6-yl) pyridazine-3-carboxylic Acid]
100 to 1000	O=C(O)c1ccc2nc(N3CC4(CC(OCc5c(-c6c(Cl)cccc6Cl)noc5C5CC5)C4)C[C@H]3CF)oc2c1 (stereo partly drawn) [Example 21, (S)-2-(2-((5-cyclopropyl-3-(2,6-dichlorophenyl)isoxazol-4-yl)methoxy)-7-(fluromethyl)-6-azaspiro[3.4]octan-6-yl) benzo[d]oxazole-6-carboxylic Acid]
< 100	O=C(O)c1ccc2nc(N3CC4(CC(OCc5c(-c6c(Cl)cccc6Cl)noc5C5CC5)C4)C3)sc2c1 [Example 4, 2-(6((5-cyclopropyl-3-(2,6-dichlorophenyl)isoxazol-4-yl)methoxy)2-azaspiro[3.3]heptan-2-yl)benzo[d]thiazole-6-carboxylic Acid]

— patent US20190002452A1 (GUANGZHOU HENOVCOM BIOSCIENCE CO., LTD, priority 2016, published 2019)
